Laboratory results published in article PMC9670689 (ACS Omega, 2022).
Converted amounts (≈) assume the structure as drawn.

Tests used:
neuraminidase = experiment: Colorimetric neuraminidase inhibition assay; assay type: biochemical
[1] = system: Seasonal influenza A/Egypt/NRC098/2019(H1N1); experiment: microbe, parasite or virus in culture; assay type: cell-based, seasonal human influenza A/H1N1 virus; conditions: H1N1, MDCK, in Homo sapiens

CC1=C2[C@H]3OC(=O)[C@@H](C)[C@@H]3CC[C@@]2(C)C=CC1=O [santonin]
toxic effect in MDCK cells (in words) (MDCK cells): slightly toxic effect | neuraminidase inhibition activity (in words) (neuraminidase; all tested concentrations (10 mM to 1 μM), compared to zanamivir): dose-dependant neuraminidase inhibition activities | neuraminidase activity (neuraminidase; following treatment with 1 μM): 0.65 ± 0.18 units/mL | neuraminidase activity (neuraminidase; following treatment with 10 μM): 0.42 ± 0.08 units/mL | neuraminidase activity (neuraminidase; following treatment with 100 μM): 0.41 ± 0.06 units/mL | neuraminidase activity (neuraminidase; following treatment with 1 mM): 0.35 ± 0.11 units/mL | neuraminidase activity (neuraminidase; following treatment with 10 mM): 0.14 ± 0.097 units/mL | IC50 [1]: 2.91 µg/mL (≈ 11.8 µM)
